According to ChEMBL document CHEMBL1909577, “Discovery of 3-hydroxy-4-cyano-isoquinolines as novel, potent, and selective inhibitors of human 11β-hydroxydehydrogenase 1 (11β-HSD1)” (Bioorg Med Chem Lett, 2011):
In brackets after ≈: the same amount, converted by molar mass.

Columns and labels:
[1] = test system: Liver microsomes; details: human, 10 min, 300 µM
Description: Metabolic stability of the compound in human liver microsomes assessed as stability rate per mg of protein at 300 uM after 10 mins by LC-MS/MS analysis in presence of NADPH

[2] = molecular target: T1, 11-beta-hydroxysteroid dehydrogenase 1 (Homo sapiens, UniProt P28845); experiment: Inhibition of human 11beta-HSD1 expressed in HEK293 cells assessed as conversion of [3H]-cortisone to [3H]-cortisol by scintillation plate reader; type: cell-based
T1 sequence (P28845 whole entry): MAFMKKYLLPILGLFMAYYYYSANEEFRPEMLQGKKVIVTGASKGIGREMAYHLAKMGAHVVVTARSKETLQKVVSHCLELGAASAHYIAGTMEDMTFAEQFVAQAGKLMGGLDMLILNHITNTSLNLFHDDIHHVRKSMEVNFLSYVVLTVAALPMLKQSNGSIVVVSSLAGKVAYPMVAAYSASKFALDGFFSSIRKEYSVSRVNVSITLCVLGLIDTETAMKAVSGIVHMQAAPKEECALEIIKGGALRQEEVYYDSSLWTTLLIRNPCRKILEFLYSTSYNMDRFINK

[3] = test system: Liver; details: mouse, microsomes, 10 min, 300 µM
Description: Metabolic stability of the compound in mouse liver microsomes assessed as stability rate per mg of protein at 300 uM after 10 mins by LC-MS/MS analysis in presence of NADPH

[4] = molecular target: T2, 11-beta-hydroxysteroid dehydrogenase type 2 (Homo sapiens, UniProt P80365); experiment: Inhibition of 11beta-HSD2
T2 sequence (P80365 whole entry): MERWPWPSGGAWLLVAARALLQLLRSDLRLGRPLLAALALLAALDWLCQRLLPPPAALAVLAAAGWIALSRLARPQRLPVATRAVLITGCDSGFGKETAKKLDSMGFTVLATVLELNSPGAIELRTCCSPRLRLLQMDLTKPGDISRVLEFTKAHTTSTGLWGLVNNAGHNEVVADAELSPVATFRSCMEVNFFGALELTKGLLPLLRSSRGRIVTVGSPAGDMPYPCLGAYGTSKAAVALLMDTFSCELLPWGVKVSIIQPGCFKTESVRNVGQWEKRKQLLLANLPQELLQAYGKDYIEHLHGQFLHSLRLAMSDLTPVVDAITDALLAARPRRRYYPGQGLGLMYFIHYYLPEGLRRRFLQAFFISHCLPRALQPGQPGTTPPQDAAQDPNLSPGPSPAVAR

[5] = test system: Liver microsomes; details: rat, 10 min, 300 µM
Description: Metabolic stability of the compound in rat liver microsomes assessed as stability rate per mg of protein at 300 uM after 10 mins by LC-MS/MS analysis in presence of NADPH

[6] = molecular target: T3, 11-beta-hydroxysteroid dehydrogenase 1 (Mus musculus, UniProt P50172); experiment: Inhibition of mouse 11beta-HSD1
T3 sequence (P50172 whole entry): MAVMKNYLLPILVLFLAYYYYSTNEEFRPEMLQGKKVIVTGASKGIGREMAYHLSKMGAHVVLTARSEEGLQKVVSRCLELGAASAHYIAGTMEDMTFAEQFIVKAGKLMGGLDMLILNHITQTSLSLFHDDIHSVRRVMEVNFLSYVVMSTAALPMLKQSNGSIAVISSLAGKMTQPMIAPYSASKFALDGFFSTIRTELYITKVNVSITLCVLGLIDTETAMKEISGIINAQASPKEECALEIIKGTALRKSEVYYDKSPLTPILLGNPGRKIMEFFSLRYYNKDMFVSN

[7] = Aqueous solubility of the compound; type: physicochemical
[8] = Tmax in Balb/C mouse at 10 umol/kg, po; type: ADME, organism-based; details: in vivo
[9] = molecular target: T3, 11-beta-hydroxysteroid dehydrogenase 1; experiment: Inhibition of 11beta-HSD1 in mouse 3T3L1 cells; type: cell-based, 3T3-L1
[10] = molecular target: T1, 11-beta-hydroxysteroid dehydrogenase 1; experiment: Inhibition of 11beta-HSD1 in human HEK cells; type: cell-based, HEK293
[11] = test system: UDP-glucuronosyltransferase (Mus musculus); experiment: in vitro; details: human, liver microsomes
[12] = Inhibition of cynomolgus monkey 11beta-HSD1; parameters: species or system Macaca fascicularis
[13] = test system: 11β-HSD1 (Mus musculus); details: Homo sapiens
[14] = AUC (0 to 8 hrs) in Balb/C mouse at 10 umol/kg, po; type: ADME, organism-based; parameters: time < 8 hr, dose 10 umol/kg, route oral; details: plasma
[15] = Cmax in Balb/C mouse at 10 umol/kg, po; type: ADME, organism-based; parameters: dose 10 umol/kg, route oral; details: in vivo

Row | Stability [1] | Stability [3] | Stability [5] | IC50 [6] | solubility [7] | SMILES | also measured
1 | 0.04 nmol/min | 0 nmol/min | 0.07 nmol/min | 50 nM | – | N#Cc1c(O)nc(SCc2ccccc2)c2c1-c1ccccc1CC2 | IC50 [2]: 5 nM; IC50 [4]: 386 nM
2 | 0.04 nmol/min | 0.05 nmol/min | 0.05 nmol/min | 10 nM | 38 µg/mL (≈ 118 µM) | N#Cc1ncccc1CSc1nc(O)c(C#N)c2c1CCCC2 | –
3 | 0.27 nmol/min | 0.3 nmol/min | 0.3 nmol/min | 9250 nM | – | Oc1cc2c(c(SCc3ccccc3Cl)n1)CCCC2 | –
4 | 0 nmol/min | 0.16 nmol/min | 0.24 nmol/min | 33 nM | – | N#Cc1c(O)nc(SCC2CCC2)c2c1CCCC2 | –
5 | 0.18 nmol/min | 0.27 nmol/min | 0.24 nmol/min | 6 nM | 1 µg/mL (≈ 2.9 µM) | N#Cc1c(O)nc(SCCc2ccccc2Cl)c2c1CCCC2 | –
6 | – | – | – | 16 nM | – | N#Cc1c(O)nc(SCc2ccccc2)c2c1CCCC2 | –
7 | 0.03 nmol/min | 0.12 nmol/min | Unstable | 9 nM | – | N#Cc1ccc(F)c(CSc2nc(O)c(C#N)c3c2CCCC3)c1 | –
8 | 0.24 nmol/min | 0.08 nmol/min | 0.13 nmol/min | 7 nM | – | N#Cc1c(O)nc(SCc2ccccc2Cl)c2cccc(F)c12 | –
9 | 0.19 nmol/min | 0.18 nmol/min | 0.3 nmol/min | 3830 nM | 1 µg/mL (≈ 2.46 µM) | N#Cc1ccc(-c2c(O)nc(SCc3ccccc3Cl)c3c2CCCC3)cc1 | –
10 | – | – | – | 145 nM | – | N#Cc1c(O)nc(SCc2ccccc2-c2ccccc2)c2c1CCCC2 | –
11 | 0.12 nmol/min | 0.08 nmol/min | 0.05 nmol/min | 10 nM | – | N#Cc1c(=O)[nH]c(SCc2ccccc2Cl)c2c(F)cccc12 | –
12 | 0 nmol/min | 0 nmol/min | Unstable | 3 nM | 1 µg/mL (≈ 2.74 µM) | N#Cc1c2c(c(SCc3c(Cl)cccc3Cl)[nH]c1=O)CCCC2 | –
13 | 0.08 nmol/min | 0.04 nmol/min | 0 nmol/min | 4350 nM | – | N#Cc1c(O)nc(SCc2ccccc2Cl)c2c1CCN(Cc1ccccc1)C2 | –
14 | 0.12 nmol/min | 0.07 nmol/min | 0.04 nmol/min | 21 nM | 8 µg/mL (≈ 24 µM) | N#Cc1c(O)nc(SCc2ccccc2Cl)c2c1CCOC2 | –
15 | – | – | – | 58 nM | – | N#Cc1c(O)nc(SCc2ccccc2Cl)nc1-c1ccccc1 | IC50 [2]: 27 nM; Tmax [8]: 1 h; IC50 [9]: 2850 nM; IC50 [10]: 1100 nM; half-life [11]: > 3.33 h; IC50 [12]: 53 nM; IC50 [13]: 58 nM; AUC(0-t) at 8 h [14]: 37 µM·h; Cmax [15]: 7100 nM
16 | 0.15 nmol/min | 0.23 nmol/min | 0.25 nmol/min | 6 nM | 7 µg/mL (≈ 21.8 µM) | N#Cc1ccccc1CSc1nc(O)c(C#N)c2c1CCCC2 | –
17 | 0.09 nmol/min | 0.17 nmol/min | 0.16 nmol/min | – | 6 µg/mL (≈ 18.1 µM) | N#Cc1c(O)nc(SCc2ccccc2Cl)c2c1CCCC2 | Tmax [8]: 1 h; half-life [11]: < 0.0167 h; IC50 [12]: 1 nM; AUC(0-t) at 8 h [14]: 0.2 µM·h; Cmax [15]: 30 nM

Row | Stability [1] | Stability [3] | Stability [5] | IC50 [6] | solubility [7] | SMILES | also measured
18 | – | – | – | 2270 nM | – | Oc1nc(SCc2ccccc2Cl)c2c(c1Br)CCCC2 | –
19 | 0.12 nmol/min | 0.1 nmol/min | 0.05 nmol/min | 14 nM | – | N#Cc1c(=O)[nH]c(SCc2ccccc2Cl)c2ccc(F)cc12 | –
20 | – | – | – | 4350 nM | – | N#Cc1c2c(c(-c3ccccc3)[nH]c1=O)CCCC2 | –
21 | – | – | – | 9 nM | – | COc1ccccc1CSc1nc(O)c(C#N)c2c1CCCC2 | –
22 | 0.25 nmol/min | 0.05 nmol/min | 0.04 nmol/min | 62 nM | 8 µg/mL (≈ 22.7 µM) | N#Cc1ccc2c(C#N)c(O)nc(SCc3ccccc3Cl)c2c1 | –
23 | 0.07 nmol/min | 0.17 nmol/min | 0.15 nmol/min | 95 nM | 1 µg/mL (≈ 3.16 µM) | N#Cc1c(O)nc(Sc2ccccc2Cl)c2c1CCCC2 | –
24 | 0 nmol/min | 0.01 nmol/min | 0 nmol/min | 105 nM | 238 µg/mL (≈ 734 µM) | N#Cc1ncccc1CSc1nc(O)c(C#N)c2c1COCC2 | Tmax [8]: 4 h; IC50 [9]: 3970 nM; half-life [11]: 0.05 h; AUC(0-t) at 8 h [14]: 2.9 µM·h; Cmax [15]: 500 nM
25 | 0.05 nmol/min | 0.02 nmol/min | 0.04 nmol/min | 21 nM | 2 µg/mL (≈ 6.08 µM) | N#Cc1c(=O)[nH]c(OCc2ccccc2Cl)c2cc(F)ccc12 | Tmax [8]: 4 h; IC50 [9]: 2160 nM; AUC(0-t) at 8 h [14]: 12 µM·h; Cmax [15]: 2300 nM
26 | Unstable | Unstable | Unstable | 6 nM | 1 µg/mL (≈ 3.18 µM) | N#Cc1c(O)nc(OCc2ccccc2Cl)c2c1CCCC2 | –
27 | 0 nmol/min | 0.11 nmol/min | 0.19 nmol/min | 10 nM | 32 µg/mL (≈ 85.5 µM) | CS(=O)(=O)c1ccccc1CSc1nc(O)c(C#N)c2c1CCCC2 | –
28 | 0.17 nmol/min | 0.2 nmol/min | 0.23 nmol/min | 19 nM | 1 µg/mL (≈ 3.06 µM) | N#Cc1c(O)nc(SCc2ccccc2Cl)c2ccccc12 | –
29 | 0.09 nmol/min | 0.3 nmol/min | 0.3 nmol/min | 25 nM | 1 µg/mL (≈ 3.02 µM) | N#Cc1c(O)nc(SCc2ccc(Cl)cc2)c2c1CCCC2 | –
30 | – | – | – | 39 nM | 1 µg/mL (≈ 3.02 µM) | N#Cc1c(O)nc(SCc2cccc(Cl)c2)c2c1CCCC2 | –
31 | 0.07 nmol/min | 0.12 nmol/min | 0.14 nmol/min | 267 nM | – | N#Cc1c(O)nc(S(=O)(=O)Cc2ccccc2Cl)c2c1CCCC2 | –
32 | 0 nmol/min | 0.02 nmol/min | 0.02 nmol/min | 24 nM | 3 µg/mL (≈ 8.92 µM) | N#Cc1ncccc1CSc1nc(O)c(C#N)c2ccc(F)cc12 | –
33 | 0.09 nmol/min | 0 nmol/min | 0.04 nmol/min | 7 nM | 1 µg/mL (≈ 2.9 µM) | N#Cc1c(O)nc(SCc2ccccc2Cl)c2cc(F)ccc12 | Tmax [8]: 4 h; IC50 [9]: 2250 nM; AUC(0-t) at 8 h [14]: 15 µM·h; Cmax [15]: 2900 nM
